# Experimental data from US20260258050A1, “IMMUNOMODULATOR” (HITGEN INC., priority 2023, published 2026).
# Biological target: T1, Human IL-17AF (Homo sapiens, UniProt Q16552+Q96PD4)
# T1 construct: purchased Sino Biological Inc. CT047-H08H
# T1 sequence (Q16552 24-155): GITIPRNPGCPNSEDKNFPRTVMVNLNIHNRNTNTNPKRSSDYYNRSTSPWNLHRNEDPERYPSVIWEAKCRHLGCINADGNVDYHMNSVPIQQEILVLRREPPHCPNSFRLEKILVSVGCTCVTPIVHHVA
# T1 sequence (Q96PD4 31-163): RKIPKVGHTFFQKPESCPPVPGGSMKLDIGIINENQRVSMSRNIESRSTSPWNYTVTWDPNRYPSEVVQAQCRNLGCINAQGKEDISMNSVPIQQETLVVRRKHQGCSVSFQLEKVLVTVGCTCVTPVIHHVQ
# Assay: IL-17AF ELISA (competitive ELISA, IL-17AF/IL-17Ra receptor-ligand binding)
# Details: human IL-17AF coated plate, human IL-17Ra, read-out: IC50, inhibitory activity of compounds on human IL-17AF
# How it was run: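 Plates coated with 0.625 μg/ml human IL-17AF in PBS pH 7.4 (37 °C, 30 min) and milk-blocked. Compounds pre-incubated with coated IL-17AF for 10 min at 25 °C, then IL-17Ra added (as 100 nM solution) for 30 min. Bound receptor detected by anti-Fc HRP/TMB at 450 nm; IC50 from variable-slope normalized fit versus DMSO control and blank.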
row,SMILES,IC50
1,CCN1CCc2n[nH]c(C)c2-c2cc(F)c(NC(=O)[C@@H](NC(=O)c3ccnn3C(C)C)C(C3CC3)C3CC3)cc2C1 [compound 156],0.1 to 0.5 µM
2,Cc1[nH]nc2c1-c1cc(F)c(NC(=O)[C@@H](NC(=O)c3ccnn3C(C)C)C(C3CC3)C3CC3)cc1CN(CC(C)(F)F)C(=O)C2 [compound 148],0.1 to 0.5 µM
3,Cc1[nH]nc2c1-c1cc(F)c(NC(=O)[C@@H](NC(=O)c3ccnn3C(C)C)C(C3CC3)C3CC3)cc1CN(CC(F)F)CC2 [compound 158],0.1 to 0.5 µM
4,CCn1nccc1C(=O)N[C@H](C(=O)Nc1cc2c(cc1F)-c1c(n[nH]c1C)CC(=O)N(CC(C)(F)F)C2)C(C1CC1)C1CC1 [compound 149],≤ 0.1 µM
5,Cc1[nH]nc2c1-c1cc(F)c(NC(=O)[C@@H](NC(=O)c3ccnn3C(C)C)C(C3CC3)C3CC3)cc1CN(CC(F)F)C(=O)C2 [compound 144],0.1 to 0.5 µM
6,Cc1[nH]nc2c1-c1cc(F)c(NC(=O)[C@@H](NC(=O)c3ccnn3C(C)C)C(C3CC3)C3CC3)cc1CN(C(C)C)C(=O)C2 [compound 150],≤ 0.1 µM
7,Cc1[nH]nc2c1-c1cc(F)c(NC(=O)[C@@H](NC(=O)c3ccnn3C(C)C)C(C3CC3)C3CC3)cc1CN(C1CC1)CC2 [compound 165],0.1 to 0.5 µM
8,Cc1[nH]nc2c1-c1ccc(NC(=O)[C@@H](NC(=O)c3ccnn3C3CC3)C(C3CC3)C3CC3)cc1COCC2 [compound 6],0.1 to 0.5 µM
9,Cc1[nH]nc2c1-c1cc(F)c(NC(=O)[C@@H](NC(=O)c3ccnn3C(C)C)C(C3CC3)C3CC3)cc1CN(CC(F)(F)F)C(=O)C2 [compound 152],0.1 to 0.5 µM
10,CCn1nccc1C(=O)N[C@H](C(=O)Nc1cc2c(cc1F)-c1c(n[nH]c1C)CC(=O)N(CC(F)F)C2)C(C1CC1)C1CC1 [compound 145],≤ 0.1 µM
11,CCN1Cc2cc(NC(=O)[C@@H](NC(=O)c3ccnn3C(C)C)C(C3CC3)C3CC3)c(F)cc2-c2c(n[nH]c2C)CC1=O [compound 142],≤ 0.1 µM
12,Cc1[nH]nc2c1-c1cc(F)c(NC(=O)[C@@H](NC(=O)c3ccnn3C(C)C)C(C3CC3)C3CC3)cc1CN(CC(F)(F)F)CC2 [compound 164],0.1 to 0.5 µM

# More lines, now with the values ahead:
row,IC50,SMILES
1,0.1 to 0.5 µM,CCn1nccc1C(=O)N[C@H](C(=O)Nc1cc2c(cc1F)-c1c(n[nH]c1C)CC(=O)N(C)C2)C(C1CC1)C1CC1 [compound 133]
2,0.1 to 0.5 µM,Cc1[nH]nc2c1-c1cc(F)c(NC(=O)[C@@H](NC(=O)c3ccnn3C(C)C)C(C3CC3)C3CC3)cc1CN(CC(C)(F)F)CC2 [compound 160]
3,≤ 0.1 µM,CCn1nccc1C(=O)N[C@H](C(=O)Nc1cc2c(cc1F)-c1c(n[nH]c1C)CCN(CC(C)(F)F)C2)C(C1CC1)C1CC1 [compound 161]
4,0.1 to 0.5 µM,Cc1[nH]nc2c1-c1cc(F)c(NC(=O)[C@@H](NC(=O)c3ccnn3C(C)C)C(C3CC3)C3CC3)cc1CN(C)C(=O)C2 [compound 132]
5,≤ 0.1 µM,CCn1nccc1C(=O)N[C@H](C(=O)Nc1cc2c(cc1F)-c1c(n[nH]c1C)CC(=O)N(C(C)C)C2)C(C1CC1)C1CC1 [compound 151]
6,≤ 0.1 µM,CCn1nccc1C(=O)N[C@H](C(=O)Nc1ccc2c(c1)COCCc1n[nH]c(C)c1-2)C(C1CC1)C1CC1 [compound 3]
7,≤ 0.1 µM,CCn1nccc1C(=O)N[C@H](C(=O)Nc1cc2c(cc1F)-c1c(n[nH]c1C)CCN(CC(F)F)C2)C(C1CC1)C1CC1 [compound 159]
8,≤ 0.1 µM,Cc1[nH]nc2c1-c1cc(F)c(NC(=O)[C@@H](NC(=O)c3ccnn3C(C)C)C(C3CC3)C3CC3)cc1CN(C1CC1)C(=O)C2 [compound 136]
9,≤ 0.1 µM,CCN1Cc2cc(NC(=O)[C@@H](NC(=O)c3ccnn3CC)C(C3CC3)C3CC3)c(F)cc2-c2c(n[nH]c2C)CC1=O [compound 143]
10,≤ 0.1 µM,Cc1[nH]nc2c1-c1cc(F)c(NC(=O)[C@@H](NC(=O)c3ccnn3C(C)C)C(C3CC3)C3CC3)cc1CN(CC1CC1)C(=O)C2 [compound 153]
11,0.1 to 0.5 µM,Cc1[nH]nc2c1-c1cnc(NC(=O)[C@@H](NC(=O)c3ccnn3C[C@@H]3C[C@H]3F)C(C3CC3)C3CC3)cc1COCC2 [compound 125]
